The structures appear in SMILES notation.

The first data set can be described thus: logP (pH2.3), physical properties of Tables 1 to 3. In kind it is physicochemical.
Conditions: not given
From the text:
However, the present invention is not limited to these compounds. In the tables, the term “physical properties” means a melting point or logp. The symbol “Me” represents a methyl group, “Et” represents an ethyl group, “Pr” represents a propyl group, “-n” represents normal, and “-i” represents iso.
Turning to `Cc1cc(C(F)(C(F)(F)F)C(F)(F)F)ccc1NC(=O)c1cccc(Br)c1C(=O)N[C@H](C[S+](C)[O-])C(C)C` (stereo partly shown) [Compound 1-352], the “Physical properties logP(pH2.3)” value was 3.06. Same read-out and setting: next, `CCC(C[S+](C)[O-])NC(=O)c1c(Cl)cccc1C(=O)Nc1ccc(C(F)(C(F)(F)F)C(F)(F)F)cc1C` (mixture of isomers) [Compound 1-340]: 2.78; `Cc1cc(C(F)(C(F)(F)F)C(F)(F)F)ccc1NC(=O)c1cccc(Cl)c1C(=O)N[C@@H](CC(C)C)CS(C)(=O)=O` [Compound 1-359]: 3.77. Same read-out and setting: to `CSC[C@H](CC(C)C)NC(=O)c1c(Cl)cccc1C(=O)Nc1ccc(C(F)(C(F)(F)F)C(F)(F)F)cc1C` [Compound 1-357] belongs 5.11; to `Cc1cc(C(F)(C(F)(F)F)C(F)(F)F)ccc1NC(=O)c1cccc(I)c1C(=O)N[C@@H](CC(C)C)CS(C)(=O)=O` [Compound 1-365], 3.87. Same read-out and setting: to `Cc1cc(C(F)(C(F)(F)F)C(F)(F)F)ccc1NC(=O)c1cccc(I)c1C(=O)N[C@H](C[S+](C)[O-])C(C)C` (stereo partly shown) [Compound 1-355] belongs 3.13; to `Cc1cc(C(F)(C(F)(F)F)C(F)(F)F)ccc1NC(=O)c1cccc(I)c1C(=O)N[C@@H](CC(C)C)C[S+](C)[O-]` (stereo partly shown) [Compound 1-364], 3.39; to `CC[C@@H](C[S+](C)[O-])NC(=O)c1c(Br)cccc1C(=O)Nc1ccc(C(F)(C(F)(F)F)C(F)(F)F)cc1C` (stereo partly shown) [Compound 1-343], 2.83.

For `Cc1cc(C(F)(C(F)(F)F)C(F)(F)F)ccc1NC(=O)c1cccc(Br)c1C(=O)N[C@@H](CC(C)C)C[S+](C)[O-]` (stereo partly shown) [Compound 1-361], the “Physical properties logP(pH2.3)” value amounted to 3.30. The same measure, in the same setting: to `CC[C@@H](CSC)NC(=O)c1c(Br)cccc1C(=O)Nc1ccc(C(F)(C(F)(F)F)C(F)(F)F)cc1C` [Compound 1-342] belongs 4.54; to `Cc1cc(C(F)(C(F)(F)F)C(F)(F)F)ccc1NC(=O)c1cccc(Cl)c1C(=O)N[C@H](C[S+](C)[O-])C(C)C` (stereo partly shown) [Compound 1-349], 3.03; to `CC[C@@H](CS(C)(=O)=O)NC(=O)c1c(Cl)cccc1C(=O)Nc1ccc(C(F)(C(F)(F)F)C(F)(F)F)cc1C` [Compound 1-341], 3.31.

Still in this data set, the particulars now being: Table 1.
As for `CCSC[C@H](C)NC(=O)c1c(I)cccc1C(=O)Nc1ccc(I)c(F)c1C` [Compound 1-132], the “Physical properties: logP” value turned out to be 3.77. Take `CCSC[C@H](C)NC(=O)c1c(Br)cccc1C(=O)Nc1ccc(C(F)(C(F)(F)F)C(F)(F)F)c(F)c1C` [Compound 1-198]: the “Physical properties: logP” value is given as 4.63. With `CCS(=O)(=O)C[C@H](C)NC(=O)c1c(Br)cccc1C(=O)Nc1ccc(Br)c(F)c1C` [Compound 1-179], the “Physical properties: logP” value came to 2.39.

As to `Cc1c(NC(=O)c2cccc(Br)c2C(=O)N[C@@H](C)CS(C)(=O)=O)ccc(C(F)(F)C(F)(F)F)c1F` [Compound 1-167], the “Physical properties: logP” value is on record as 2.86. For `CCSC[C@H](C)NC(=O)c1c(Br)cccc1C(=O)Nc1ccc(C(F)(F)F)c(F)c1C` [Compound 1-180], the “Physical properties: logP” value is reported as 3.80. Consider `CCS(=O)(=O)C[C@H](C)NC(=O)c1c(I)cccc1C(=O)Nc1cc(F)c(OC(F)(F)F)cc1Br` [Compound 1-116], for which the “Physical properties: logP” value is 3.09. On the same count and under the same terms, to `CCS(=O)(=O)C[C@H](C)NC(=O)c1c(Br)cccc1C(=O)Nc1ccc(OC(F)(F)F)c(F)c1C` [Compound 1-191] belongs 2.69; to `Cc1c(NC(=O)c2cccc(Br)c2C(=O)N[C@@H](C)C[S+](C)[O-])ccc(C(F)(F)C(F)(F)F)c1F` (stereo partly shown) [Compound 1-166], 2.42; to `CCc1cc(C(F)(C(F)(F)F)C(F)(F)F)ccc1NC(=O)c1cccc(Br)c1C(=O)N[C@@H](C)CSC` [Compound 1-219], 4.42. Same read-out and setting: next, `Cc1c(NC(=O)c2cccc(I)c2C(=O)N[C@@H](C)CS(C)(=O)=O)ccc(C(F)(F)C(F)(F)F)c1F` [Compound 1-137]: 2.97. Turning to `CCS(=O)(=O)C[C@H](C)NC(=O)c1c(I)cccc1C(=O)Nc1ccc(Br)c(F)c1C` [Compound 1-122], the “Physical properties: logP” value stood at 2.49.

In the case of `CCS(=O)(=O)C[C@H](C)NC(=O)c1c(Br)cccc1C(=O)Nc1cc(F)c(OC(F)(F)F)cc1Cl` [Compound 1-194], the “Physical properties: logP” value worked out at 2.96. For `CSC[C@H](C)NC(=O)c1c(I)cccc1C(=O)Nc1ccc(OC(F)(F)F)c(F)c1C` [Compound 1-138], the “Physical properties: logP” value was 3.59. Same read-out and setting: to `CSC[C@H](C)NC(=O)c1c(I)cccc1C(=O)Nc1ccc(Br)c(Br)c1C` [Compound 1-153] belongs 3.55.

With `CCS(=O)(=O)C[C@H](C)NC(=O)c1c(I)cccc1C(=O)Nc1ccc(C(F)(C(F)(F)F)C(F)(F)F)c(F)c1C` [Compound 1-107], the “Physical properties: logP” value came to 3.47.

Turning to `Cc1c(NC(=O)c2cccc(I)c2C(=O)N[C@@H](C)C[S+](C)[O-])ccc(C(F)(F)C(F)(F)F)c1F` (stereo partly shown) [Compound 1-136], the “Physical properties: logP” value turned out to be 2.50.

Take `CCS(=O)(=O)C[C@H](C)NC(=O)c1c(I)cccc1C(=O)Nc1ccc(Br)c(Br)c1C` [Compound 1-131]: the “Physical properties: logP” value stood at 2.67. The same measure, in the same setting: to `CCSC[C@H](C)NC(=O)c1c(I)cccc1C(=O)Nc1ccc(C(F)(C(F)(F)F)C(F)(F)F)c(F)c1C` [Compound 1-105] belongs 4.71; to `CCSC[C@H](C)NC(=O)c1c(Br)cccc1C(=O)Nc1cc(F)c(OC(F)(F)F)cc1Cl` [Compound 1-192], 4.16; to `CSC[C@H](C)NC(=O)c1c(I)cccc1C(=O)Nc1ccc(C(F)(C(F)(F)F)C(F)(F)F)c(F)c1C` [Compound 1-141], 4.41.

In the case of `Cc1c(NC(=O)c2cccc(Br)c2C(=O)N[C@@H](C)C[S+](C)[O-])ccc(C(F)(C(F)(F)F)C(F)(F)F)c1F` (stereo partly shown) [Compound 1-169], the “Physical properties: logP” value is recorded as 2.72.

On to `CC[S+]([O-])C[C@H](C)NC(=O)c1c(Cl)cccc1C(=O)Nc1ccc(C(F)(C(F)(F)F)C(F)(F)F)c(F)c1C` (stereo partly shown) [Compound 1-202], for which the “Physical properties: logP” value is on record as 2.86. With `CSC[C@H](C)NC(=O)c1c(Br)cccc1C(=O)Nc1ccc(C(F)(C(F)(F)F)C(F)(F)F)c(F)c1C` [Compound 1-168], the “Physical properties: logP” value stood at 4.31. On to `CCS(=O)(=O)C[C@H](C)NC(=O)c1c(I)cccc1C(=O)Nc1ccc(OC(F)(F)F)c(Br)c1Cl` [Compound 1-164], for which the “Physical properties: logP” value is on record as 3.19. The same measure, in the same setting: to `CCc1cc(C(F)(C(F)(F)F)C(F)(F)F)ccc1NC(=O)c1cccc(Cl)c1C(=O)N[C@@H](C)CSC` [Compound 1-216] belongs 4.36; to `CCSC[C@H](C)NC(=O)c1c(I)cccc1C(=O)Nc1ccc(C(F)(F)C(F)(F)F)c(F)c1C` [Compound 1-108], 4.36. Same read-out and setting: next, `CCS(=O)(=O)C[C@H](C)NC(=O)c1c(Br)cccc1C(=O)Nc1ccc(C(F)(C(F)(F)F)C(F)(F)F)c(F)c1C` [Compound 1-200]: 3.39; `CCS(=O)(=O)C[C@H](C)NC(=O)c1c(Br)cccc1C(=O)Nc1ccc(I)c(F)c1C` [Compound 1-185]: 2.51. On the same count and under the same terms, to `CSC[C@H](C)NC(=O)c1c(Cl)cccc1C(=O)Nc1ccc(C(F)(C(F)(F)F)C(F)(F)F)c(F)c1C` [Compound 1-204] belongs 4.23. On to `CSC[C@H](C)NC(=O)c1c(I)cccc1C(=O)Nc1ccc(C(F)(F)F)c(F)c1C` [Compound 1-156], for which the “Physical properties: logP” value is reported as 3.58. The same measure, in the same setting: to `CCSC[C@H](C)NC(=O)c1c(I)cccc1C(=O)Nc1ccc(OC(F)(F)F)c(Br)c1Cl` [Compound 1-162] belongs 4.42; to `CCS(=O)(=O)C[C@H](C)NC(=O)c1c(I)cccc1C(=O)Nc1cc(F)c(OC(F)(F)F)cc1Cl` [Compound 1-119], 3.07; to `CCSC[C@H](C)NC(=O)c1c(Br)cccc1C(=O)Nc1ccc(I)c(F)c1C` [Compound 1-183], 3.66. Still for that read-out and setting: next, `Cc1c(NC(=O)c2cccc(I)c2C(=O)N[C@@H](C)CS(C)(=O)=O)ccc(Br)c1F` [Compound 1-149]: 2.29. Same read-out and setting: to `CCS(=O)(=O)C[C@H](C)NC(=O)c1c(I)cccc1C(=O)Nc1ccc(C(F)(F)C(F)(F)F)c(F)c1C` [Compound 1-110] belongs 3.15; to `CCSC[C@H](C)NC(=O)c1c(I)cccc1C(=O)Nc1ccc(Br)c(F)c1C` [Compound 1-120], 3.65; to `CCSC[C@H](C)NC(=O)c1c(Br)cccc1C(=O)Nc1ccc(C(F)(F)C(F)(F)F)c(Cl)c1C` [Compound 1-174], 4.43. On to `CCS(=O)(=O)C[C@H](C)NC(=O)c1c(Br)cccc1C(=O)Nc1cc(F)c(OC(F)(F)F)cc1Br` [Compound 1-197], for which the “Physical properties: logP” value is recorded as 2.99. Same read-out and setting: next, `CCSC[C@H](C)NC(=O)c1c(I)cccc1C(=O)Nc1ccc(C(F)(F)C(F)(F)F)c(Cl)c1C` [Compound 1-111]: 4.53; `CCSC[C@H](C)NC(=O)c1c(Br)cccc1C(=O)Nc1ccc(C(F)(F)C(F)(F)F)c(F)c1C` [Compound 1-171]: 4.26; `Cc1c(NC(=O)c2cccc(Cl)c2C(=O)N[C@@H](C)C[S+](C)[O-])ccc(C(F)(C(F)(F)F)C(F)(F)F)c1F` (stereo partly shown) [Compound 1-205]: 2.69.

As for `CCS(=O)(=O)C[C@H](C)NC(=O)c1c(Cl)cccc1C(=O)Nc1ccc(C(F)(C(F)(F)F)C(F)(F)F)c(F)c1C` [Compound 1-203], the “Physical properties: logP” value is given as 3.34. Still for that read-out and setting: next, `CSC[C@H](C)NC(=O)c1c(Br)cccc1C(=O)Nc1ccc(C(F)(F)C(F)(F)F)c(F)c1C` [Compound 1-165]: 3.93.
